ChEMBL document CHEMBL1143222, “Synthesis and in vitro activity of N'-cyano-4-(2-phenylacetyl)-N-o-tolylpiperazine-1-carboximidamide P2X7 antagonists” (Bioorg Med Chem Lett, 2008)
Active and inactive are the calls of the source. The rule behind the calls is not given here.

Assays:
P2X purinoceptor 7 [1] = biological target: T1, P2X purinoceptor 7 (Rattus norvegicus, UniProt Q64663); assay: Antagonist activity at rat recombinant P2X7 receptor assessed as inhibition of calcium flux by FLIPR assay; type: functional
T1 sequence (Q64663 whole entry): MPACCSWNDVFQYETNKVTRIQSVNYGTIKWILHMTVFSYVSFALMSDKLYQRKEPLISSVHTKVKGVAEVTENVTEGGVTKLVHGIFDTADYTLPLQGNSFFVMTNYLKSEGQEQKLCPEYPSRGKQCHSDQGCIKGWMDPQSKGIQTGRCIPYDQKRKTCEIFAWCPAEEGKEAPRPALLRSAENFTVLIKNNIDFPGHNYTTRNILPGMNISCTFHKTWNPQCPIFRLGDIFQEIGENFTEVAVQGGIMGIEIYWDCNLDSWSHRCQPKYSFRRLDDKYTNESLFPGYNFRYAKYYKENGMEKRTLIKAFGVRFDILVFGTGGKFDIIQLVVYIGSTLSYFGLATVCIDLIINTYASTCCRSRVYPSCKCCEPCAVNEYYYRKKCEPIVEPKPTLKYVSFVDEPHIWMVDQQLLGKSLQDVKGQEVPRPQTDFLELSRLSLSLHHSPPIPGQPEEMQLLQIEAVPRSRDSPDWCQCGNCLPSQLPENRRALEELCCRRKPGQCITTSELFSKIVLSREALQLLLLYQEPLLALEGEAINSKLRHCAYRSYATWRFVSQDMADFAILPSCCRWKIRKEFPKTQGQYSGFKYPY

P2X purinoceptor 7 [2] = biological target: T2, P2X purinoceptor 7 (Homo sapiens, UniProt Q99572); assay: Antagonist activity at human recombinant P2X7 receptor assessed as inhibition of calcium flux by FLIPR assay; type: functional
T2 sequence (Q99572 whole entry): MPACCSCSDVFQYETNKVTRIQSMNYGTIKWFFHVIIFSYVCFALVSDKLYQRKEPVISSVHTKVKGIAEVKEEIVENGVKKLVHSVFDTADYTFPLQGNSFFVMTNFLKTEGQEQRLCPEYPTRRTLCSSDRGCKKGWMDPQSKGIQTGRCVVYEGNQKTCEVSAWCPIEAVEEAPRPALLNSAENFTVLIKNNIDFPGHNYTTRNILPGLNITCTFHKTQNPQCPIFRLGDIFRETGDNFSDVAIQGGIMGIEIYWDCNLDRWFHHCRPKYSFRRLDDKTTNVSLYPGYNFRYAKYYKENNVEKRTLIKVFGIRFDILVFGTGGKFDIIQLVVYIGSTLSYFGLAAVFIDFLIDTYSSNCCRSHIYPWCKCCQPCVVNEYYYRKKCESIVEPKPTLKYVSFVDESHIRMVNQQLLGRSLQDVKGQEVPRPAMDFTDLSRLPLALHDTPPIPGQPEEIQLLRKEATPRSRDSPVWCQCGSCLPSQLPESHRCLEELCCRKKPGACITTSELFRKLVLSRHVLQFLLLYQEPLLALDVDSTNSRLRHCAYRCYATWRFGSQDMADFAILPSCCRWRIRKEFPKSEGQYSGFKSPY

[3] = Inhibition of P2X2/3 receptor at 10 uM
[4] = biological target: T3, P2X purinoceptor 3 (Homo sapiens) (UniProt P56373); assay: Inhibition of P2X3 receptor at 10 uM
T3 sequence (whole entry): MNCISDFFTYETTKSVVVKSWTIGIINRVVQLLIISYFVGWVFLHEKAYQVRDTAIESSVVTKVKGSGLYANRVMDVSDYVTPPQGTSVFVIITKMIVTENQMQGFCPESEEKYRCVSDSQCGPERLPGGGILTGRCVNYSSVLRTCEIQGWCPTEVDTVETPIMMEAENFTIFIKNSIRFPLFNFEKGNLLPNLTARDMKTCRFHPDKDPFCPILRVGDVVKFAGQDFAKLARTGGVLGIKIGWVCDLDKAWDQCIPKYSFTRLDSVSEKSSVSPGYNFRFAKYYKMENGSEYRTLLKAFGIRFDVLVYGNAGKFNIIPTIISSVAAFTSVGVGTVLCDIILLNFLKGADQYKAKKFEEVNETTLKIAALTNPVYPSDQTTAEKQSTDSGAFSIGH

[5] = biological target: T4, P2X purinoceptor 4 (Homo sapiens) (UniProt Q99571); assay: Inhibition of P2X4 receptor at 10 uM
T4 sequence (whole entry): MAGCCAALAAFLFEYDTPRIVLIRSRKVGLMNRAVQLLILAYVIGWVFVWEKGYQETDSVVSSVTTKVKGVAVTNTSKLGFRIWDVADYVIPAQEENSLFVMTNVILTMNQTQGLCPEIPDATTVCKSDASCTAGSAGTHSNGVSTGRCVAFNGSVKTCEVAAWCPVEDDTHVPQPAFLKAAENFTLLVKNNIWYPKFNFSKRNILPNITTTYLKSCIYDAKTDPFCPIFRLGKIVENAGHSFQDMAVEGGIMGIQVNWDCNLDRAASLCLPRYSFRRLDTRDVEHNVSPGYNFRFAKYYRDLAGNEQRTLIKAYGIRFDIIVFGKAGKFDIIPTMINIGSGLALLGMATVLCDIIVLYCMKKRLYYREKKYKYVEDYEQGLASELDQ

[6] = biological target: P2Y purinoceptor 2 (Homo sapiens) (UniProt P41231); assay: Inhibition of P2Y2 receptor at 10 uM
Sequence of P2Y purinoceptor 2 (Homo sapiens) (P41231 whole entry): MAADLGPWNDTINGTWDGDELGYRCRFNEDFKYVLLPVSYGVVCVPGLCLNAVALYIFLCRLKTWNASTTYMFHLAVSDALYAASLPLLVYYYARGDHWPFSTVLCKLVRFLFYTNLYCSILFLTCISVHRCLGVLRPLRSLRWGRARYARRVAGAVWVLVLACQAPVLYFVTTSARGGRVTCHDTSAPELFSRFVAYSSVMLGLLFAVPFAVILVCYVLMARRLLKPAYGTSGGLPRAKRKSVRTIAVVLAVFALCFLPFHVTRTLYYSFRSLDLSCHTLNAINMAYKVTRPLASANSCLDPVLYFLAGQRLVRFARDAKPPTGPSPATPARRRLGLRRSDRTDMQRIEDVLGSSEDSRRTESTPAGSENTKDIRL

Structure (SMILES) | IC50 (P2X purinoceptor 7 [1]) | IC50 (P2X purinoceptor 7 [2]) | also measured
COc1ccc(CC(=O)N2CCN(C(=Nc3ccccc3C)NC#N)[C@H](CC(C)C)C2)cc1OC | 4500 nM | 430 nM | 
Cc1cc(CC(=O)N2CCN(C(=Nc3ccccc3C)NC#N)CC2c2ccccc2)on1 (stereo unspecified) | 170 nM | 46 nM | 
COc1ccc(CC(=O)NC(NC(=NC#N)Nc2ccccc2C)C(C)(C)C)cc1OC (stereo unspecified) | 14 nM | 120 nM | 
Cc1ccn(CC(=O)N2CCN(/C(=N/C#N)Nc3ccccc3C)CC2c2ccccc2)n1 (stereo unspecified) | 320 nM | 40 nM | 
COc1ccc(CC(=O)N2CCN(C(=Nc3ccccc3C)NC#N)CC2c2ccccc2)cc1OC (stereo in doubt; 26) | 140 nM | 58 nM | 
Cc1ccccc1N/C(=N\C#N)N1CCN(C(=O)Cc2ccoc2)C(c2ccccc2)C1 (stereo unspecified) | 250 nM | 220 nM | 
COc1ccc(C(=O)N2CCN(C(=Nc3cccc4ncccc34)NC#N)CC2c2ccccc2)cc1OC (stereo unspecified) | 30 nM | 59 nM | 
Cc1cc(CC(=O)N2CCN(/C(=N/C#N)Nc3ccccc3C)CC2c2ccccc2)no1 (stereo unspecified) | 610 nM | 410 nM | 
Cc1ccccc1N=C(NC#N)N1CCN(C(=O)Cc2ccc(Cl)cc2)C(c2ccccc2)C1 (stereo unspecified) | 110 nM | 140 nM | 
COc1ccc(CCCC(=O)N2CCN(/C(=N/C#N)Nc3ccccc3C)CC2c2ccccc2)cc1OC (stereo unspecified) | 95 nM | 70 nM | 
Cc1ccccc1N/C(=N\C#N)N1CCN(C(=O)Cc2ccsc2)C(c2ccccc2)C1 (stereo unspecified) | 270 nM | 71 nM | 
Cc1ccccc1N/C(=N\C#N)N1CCN(C(=O)CC23CC4CC(CC(C4)C2)C3)C(c2ccccc2)C1 (stereo unspecified) | 630 nM | 1500 nM | 
COc1ccc(CC(=O)N2CCN(C(=Nc3ccccc3C)NC#N)CC2c2ccccc2)cc1OC (stereo in doubt; 7) | 140 nM | 58 nM | 
COc1ccc(CC(=O)NC(N/C(=N/C#N)Nc2cccc3ncccc23)C(C)(C)C)cc1OC (stereo unspecified) |  | 44 nM | 
COc1ccc(C(=O)N2CCN(C(=Nc3ccccc3C)NC#N)CC2c2ccccc2)cc1OC (stereo unspecified) | 290 nM | 94 nM | 
Cc1ccccc1N=C(NC#N)N1CCN(C(=O)Cc2ccco2)C(c2ccccc2)C1 (stereo unspecified) | 520 nM | 110 nM | 
COc1ccc(CC(=O)N2CCN(C(=Nc3ccccc3C)NC#N)[C@H](C(C)C)C2)cc1OC | 16000 nM | 1300 nM | 
Cc1ccccc1N/C(=N\C#N)N1CCN(C(=O)Cc2c[nH]cn2)C(c2ccccc2)C1 (stereo unspecified) | 14000 nM | 1000 nM | 
Cc1ccccc1N/C(=N\C#N)N1CCN(C(=O)Cc2cccs2)C(c2ccccc2)C1 (stereo unspecified) | 150 nM | 46 nM | 
Cc1ccccc1N=C(NC#N)N1CCN(C(=O)Cc2ccncc2)C(c2ccccc2)C1 (stereo unspecified) | 150 nM | 36 nM | 
Cc1ccccc1N/C(=N\C#N)N1CCN(C(=O)Cc2cccnc2)C(c2ccccc2)C1 (stereo unspecified) | 390 nM | 40 nM | 
Cc1ccccc1N/C(=N\C#N)N1CCN(C(=O)Cn2nccc2C)C(c2ccccc2)C1 (stereo unspecified) | 560 nM | 60 nM | 
Cc1ccccc1N/C(=N\C#N)N1CCN(C(=O)Cc2ccc3ccccc3c2)C(c2ccccc2)C1 (stereo unspecified) | 140 nM | 310 nM | 
Cc1ccccc1N=C(NC#N)N1CCN(C(=O)Cc2ccccc2)C(c2ccccc2)C1 (stereo unspecified) | 380 nM | 88 nM | 
COc1ccc(CC(=O)N2C(C)CN(C(=Nc3ccccc3C)NC#N)CC2C)cc1OC (cis isomer) | 19000 nM | 460 nM | 
COc1ccc(CC(=O)N2CCN(/C(=N/C#N)Nc3ccccc3C)CC2C(C)(C)C)cc1OC (stereo unspecified) | 420 nM | 190 nM | 
COc1ccc(CCC(=O)N2CCN(/C(=N/C#N)Nc3ccccc3C)CC2c2ccccc2)cc1OC (stereo unspecified) | 76 nM | 57 nM | 
Cc1ccccc1N/C(=N\C#N)N1CCN(C(=O)Cc2c[nH]c3ccccc23)C(c2ccccc2)C1 (stereo unspecified) | 210 nM | 100 nM | 
COc1ccc(C(=O)N2CCN(/C(=N/C#N)Nc3cccc4ncccc34)CC2c2ccccc2)cc1OC (stereo unspecified) |  |  | Activity [3]: inactive; Activity [4]: inactive; Activity [5]: inactive; Activity [6]: inactive
COc1ccc(CC(=O)N2CCN(C(=Nc3ccccc3C)NC#N)C(c3ccccc3)C2)cc1OC (stereo unspecified) | 220 nM | 51 nM | 
